*1 amine or outer side, *2 acyl side, *3 side chain or, on linkers, in order; H or OH if unused. Where a SMILES comes first, the peptide text is derived from it. CO = O=C([*:1])[*:2]
T1: papain (Carica papaya, UniProt P00784)
T1 construct: purchased Sigma Chemical Company (St. Louis, Mo.)
T1 sequence (P00784 134-345): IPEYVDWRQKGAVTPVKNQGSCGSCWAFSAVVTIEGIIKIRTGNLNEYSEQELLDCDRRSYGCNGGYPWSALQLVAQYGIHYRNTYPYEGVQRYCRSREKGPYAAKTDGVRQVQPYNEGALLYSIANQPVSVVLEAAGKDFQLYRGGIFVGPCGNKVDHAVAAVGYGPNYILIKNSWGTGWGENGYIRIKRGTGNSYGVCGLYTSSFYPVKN


Assays:
[1] = target: T1, papain; experiment: Inhibition of papain esterolytic activity by antipain and leupeptin (BAEE substrate, pH stat); assay type: biochemical; settings: for effect of the presence of IgG substrate on inhibitory activity: 10 mg of human IgG present; for time to inhibit 100% of papain activity: inhibitor 0.4 mg/ml; for Time: time to the stated inhibition
Experimental: (§1) Papain activity was assayed using N-benzoyl-L-arginine ethyl ester in a pH stat and pepsin activity using hemoglobin substrate, according to the procedures given in the Worthington Enzyme Manual.
The ability of antipain and leupeptin to modify papain activity was checked with enzyme, both in the absence and in the presence of immunoglobulin substrate. A 0.5 mg aliquot of active papain was made up in the presence and in the absence of 10 mg of human IgG in 0.025M sodium phosphate buffer containing 10 mM EDTA and 50 mM cysteine (pH 6.2). To each sample, different amounts of either antipain or leupeptin were added and then incubated at 23° C. for 5 minutes. An aliquot of this enzyme was diluted in the same buffer and assayed for papain activity using BAEE as the substrate in the pH stat.

[2] = system: human IgG; experiment: Digestion of IgG to F(ab) by papain; assay type: biochemical
Experimental: Typically, 10 mg of IgG in the papain digestion buffer (0,025M sodium phosphate, 10 mM EDTA, 50 mM cysteine, pH 6.2) was added to either 0.5 ml of activated immobilized papain (0.5 mg equivalent of free papain) or 0.5 mg of activated soluble papain in the digestion buffer. The proteolytic cleavage was carried out for various time intervals at 37° C. At the end of each incubation period, the immobilized papain sample was centrifuged to remove the protease and the supernatant transferred to another tube containing 0.5 ml of pH 8.5 buffer. The gel was washed once with 1 ml of pH 8.5 buffer and supernatants combined. In the case of soluble papain, 0.4 mg of antipain or leupeptin in water was added to inactivate the papain and the mixture diluted with 0.5 ml of pH 8.5 buffer.
The separation of inactivated papain from the rest of mixture was carried by one of two methods. According to one procedure, an excess of anti-papain IgG (3 mg) was added to complex with the inactivated papain and the Fab fragments were separated from the rest of the mixture by passing through a 1 ml protein A cartridge equilibrated with pH 8.5 buffer. This procedure removed both the protease and its antibody in the form of antigen-antibody complexes. The column was eluted with 5 ml of pH 8.5 buffer to collect the F(ab) fragments and the absorbance of the various fractions was read at 280 nm. In an alternative procedure, the reaction mixture was first passed through an immobilized column of antipapain IgG to remove the inactivated papain and then passed through a 1 ml protein A cartridge equilibrated with pH 8.5 buffer. The Fc and the undigested immunoglobulins were eluted from the protein A cartridge with an elution buffer (pH 3.5).
After 30 minutes incubation at 37° C., 0.4 mg of antipain was added to inactivate the enzyme and then 0.5 ml of pH 8.5 buffer added to the mixture. […] The effluent was passed through a protein A column to adsorb the Fc and the undigested IgG. The F(ab) fragments came out unabsorbed from the protein A column. […]

[3] = system: avidin-agarose; experiment: Binding of biotinylated papain to avidin-agarose column; settings: 0.5 mg through a 1 ml column, pH 8.5 buffer
Description: The column was eluted with a pH 8.5 buffer and the absorbance of the eluting fractions were monitored at 280 nm.

[4] = Papain activity assay using N-benzoyl-L-arginine ethyl ester in a pH stat; assay type: biochemical; settings: BAEE substrate
Experimental: as §1

[5] = read-out: inhibition of papain activity
[6] = PAPAIN (0.5 mg) + IgG (10 mg), inhibitor 0.4 mg
[7] = PAPAIN (0.5 mg), inhibitor 0.2 mg
[8] = PAPAIN (0.5 mg), inhibitor 0.4 mg

Row | Molecule | effect of the presence of IgG substrate on inhibitory activity [1] | time to achieve 100% inhibition of papain activity ([1]; inhibitor 0.05 mg/ml) [min] | time to inhibit 100% of papain activity [1] [min] | inhibition at 50 µg/mL [1, 5] [%] | inhibition at 400 µg/mL [1, 5] [%] | Time ([1]; PAPAIN (0.5 mg) + IgG (10 mg), inhibitor 0.05 mg) [min] | Time ([1]; PAPAIN (0.5 mg) + IgG (10 mg), inhibitor 0.1 mg) [min] | Time [1, 6] [min] | Time ([1]; PAPAIN (0.5 mg), inhibitor 0.05 mg) [min] | Time ([1]; PAPAIN (0.5 mg), inhibitor 0.1 mg) [min] | Time [1, 7] [min] | Time [1, 8] [min] | Time ([1]; PAPAIN (0.5 mg) + IgG (10 mg), inhibitor 0.2 mg) [min] | % Fab Generated ([2]; 10 mg IgG, 0.5 mg enzyme, 37° C., 30 minutes) [%] | amount of F(ab) obtained relative to the immobilized form of the enzyme ([2]; first 30 minutes) | digestion of the total IgG added to F(ab) ([2]; human IgG, within the first 30 minutes, 37° C.) [%] | % Binding to Avidin-Agarose [3] [%] | Activity (Unit/mg) [4] [Unit/mg]
1 | CC(C)[C@H](NC(=O)[C@H](CCCNC(=N)N)NC(=O)N[C@@H](Cc1ccccc1)C(=O)O)C(=O)N[C@H](C=O)CCCNC(=N)N [ANTIPAIN, Antipain] ({Phe-CO}-Arg-Val-Arg-aldehyde) | did not affect | ≤ 15 | ≤ 1 | 100 | 100 | 15 | 4 | 1 | 15 | 4 | 1 | 1 |  |  |  |  |  | 
2 | CC(=O)N[C@@H](CC(C)C)C(=O)N[C@@H](CC(C)C)C(=O)N[C@H](C=O)CCCNC(=N)N [LEUPEPTIN, Leupeptin] | did not affect |  | ≤ 1 |  | 100 |  |  | < 1 |  |  | < 1 | < 1 | < 1 |  |  |  |  | 
3 | Papain: soluble protease from Sigma used to digest IgG to F(ab) (protein, UniProt P00784 134-345, looked up) Papain: IPEYVDWRQKGAVTPVKNQGSCGSCWAFSAVVTIEGIIKIRTGNLNEYSEQELLDCDRRSYGCNGGYPWSALQLVAQYGIHYRNTYPYEGVQRYCRSREKGPYAAKTDGVRQVQPYNEGALLYSIANQPVSVVLEAAGKDFQLYRGGIFVGPCGNKVDHAVAAVGYGPNYILIKNSWGTGWGENGYIRIKRGTGNSYGVCGLYTSSFYPVKN |  |  |  |  |  |  |  |  |  |  |  |  |  | 75 | double | 75 | 0 | 7.8
